The values below are quoted from earlier work in US20050065128A1, “2-alkylidene-19-nor-vitamin D derivatives for the treatment of hypogonadism or andropause” (Pfizer Inc, priority 2003, published 2005).

SMILES strings stand for the structures. Where two headings read alike, the source gives them in different places.

In data set [1] the test system is HL-60 cells. The following applies: method of Ostrem et al.
Data set [2] deals with Intestinal Calcium Transport. To be noted: intraperitoneal, male weanling rats on vitamin D-deficient low-calcium diet, 24 h after last dose, mean ± SEM.
The subject of data set [3] is Serum Calcium (Bone Calcium Mobilization). The following applies: for activity on bone calcium mobilization (serum calcium) relative to 1,25-(OH)2D3 (native hormone): chronic 7-day dosing in rats, fold of the native hormone; for Serum Calcium (mg/100 ml): intraperitoneal, male weanling rats on vitamin D-deficient low-calcium diet, 24 h after last dose, mean ± SEM.

With `C=C1[C@H](O)CC(=C/C=C2\CCC[C@]3(C)[C@@H]([C@@H](C)CCCC(C)(C)O)CC[C@@H]23)C[C@H]1O` [2-Methylene-19-Nor-20S-1,25-(OH)2D3, (20S)-1α,25-dihydroxy-2-methylene-19-nor-vitamin D3], the “inducing differentiation of HL-60 cells to the monocyte” value in data set [1] is given as “extremely potent”. Also, the “Intestinal Calcium Transport (S/M)” value in data set [2] (130 pmol/day for 7 days) and in data set [2] (260 pmol/day for 7 days) was “no significant change” throughout. The “activity on bone calcium mobilization (serum calcium) relative to 1,25-(OH)2D3 (native hormone)” value in data set [3] is “at least 10 times”.

As to `C=C1[C@H](O)CC(=C/C=C2\CCC[C@]3(C)[C@@H]([C@H](C)CCCC(C)(C)O)CC[C@@H]23)C[C@H]1O` [2-Methylene-19-Nor-1,25-(OH)2D3, 1α,25-dihydroxy-2-methylene-19-nor-vitamin D3], the “inducing differentiation of HL-60 cells to the monocyte” value in data set [1] is recorded as “activity similar to 1,25-(OH)2D3”. The “Intestinal Calcium Transport (S/M)” value in data set [2] (130 pmol/day for 7 days) and in data set [2] (260 pmol/day for 7 days) was “no intestinal calcium transport activity” throughout. Further, the “Serum Calcium (mg/100 ml)” value in data set [3] (130 pmol/day for 7 days) and in data set [3] (260 pmol/day for 7 days) was “extremely strong bone calcium mobilization” in each case. Besides, the “activity on bone calcium mobilization (serum calcium) relative to 1,25-(OH)2D3 (native hormone)” value in data set [3] is listed as 10-100 times.
